# Measurements: US7989431B2, “2-propynyl adenosine analogs with modified 5′-ribose groups having A2A agonist activity” (University of Virginia Patent Foundation, priority 2004, dated 2011)
# Read-outs that look alike come from different tables or passages of the source.
# How the values were obtained:
# A3 AR = target: T1, A3 AR (Homo sapiens, UniProt P0DMS8); experiment: Radioligand competition binding, human A3 AR; settings: binding affinity; 125I-ABA; membranes of HEK 293 cells stably expressing human A3 AR
# T1 construct: expressed in transfected cells; membranes
# T1 sequence (P0DMS8 1-318): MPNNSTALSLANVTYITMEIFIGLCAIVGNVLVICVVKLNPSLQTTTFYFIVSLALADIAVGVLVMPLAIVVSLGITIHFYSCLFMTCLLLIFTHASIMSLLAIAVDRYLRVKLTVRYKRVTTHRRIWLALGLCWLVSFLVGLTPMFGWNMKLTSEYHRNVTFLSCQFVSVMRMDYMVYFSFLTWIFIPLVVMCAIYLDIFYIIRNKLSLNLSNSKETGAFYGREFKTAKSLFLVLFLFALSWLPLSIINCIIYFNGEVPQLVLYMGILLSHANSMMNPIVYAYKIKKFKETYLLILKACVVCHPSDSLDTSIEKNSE
# Protocol: (§1) Sf9 cells were cultured in Grace's medium supplemented with 10% fetal bovine serum, 2.5 μg/ml amphotericin B and 50 μg/ml gentamycin in an atmosphere of 50% N2/50% O2. Viral infection was performed at a density of 2.5×10^6 cells/mL with a multiplicity of infection of two for each virus used. Infected cells were harvested 3 days post-infection and washed twice in insect PBS (PBS pH 6.3). Cells were then resuspended in lysis buffer (20 mM HEPES pH 7.5, 150 mM NaCl, 3 mM MgCl2, 1 mM β-mercaptoethanol (BME), 5 μg/mL leupeptin, 5 μg/mL pepstatin A, 1 μg/mL aprotinin, and 0.1 mM PMSF) and snap frozen for storage at −80° C. Cells were thawed on ice, brought to 30 mL total volume in lysis buffer, and burst by N2 cavitation (600 psi for 20 minutes). A low-speed centrifugation was performed to remove any unlysed cells (1000×g for 10 minutes), followed by a high-speed centrifugation (17,000×g for 30 minutes). The pellet from the final centrifugation was homogenized in buffer containing 20 mM HEPES pH 8, 100mM NaCl, 1% glycerol, 2 μg/mL leupeptin, 2 μg/mL pepstatin A, 2 μg/mL Aprotinin, 0.1 mM PMSF, and 10 μM GDP using a small glass homogenizer followed by passage through a 26 gauge needle. Membranes were aliquoted, snap frozen in liquid N2, and stored at −80° C. Membranes from cells stably expressing the human A1 AR(CHO K1 cells) or A3 AR(HEK 293 cells) were prepared as described (Robeva et al., 1996).
# (§2) Radioligand binding to recombinant human A2A receptors in Sf9 cell membranes was performed using either the radio labeled agonist, ^125I-APE (Luthin et al., 1995) or the radio labeled antagonist, ^125I-ZM241385 (^125I-ZM). To detect the high affinity, GTPγS-sensitive state of A1 and A3AR, we used the agonist, ^125I-ABA (Linden et al., 1985; Linden et al., 1993). Binding experiments were performed in triplicate with 5 μg (A2A) or 25 μg (A1 and A3) membrane protein in a total volume of 0.1 mL HE buffer (20 mM HEPES and 1 mM EDTA) with 1 U/mL adenosine deaminase and 5 mM MgCl2 with or without 50 μM GTPγS. Membranes were incubated with radioligands at room temperature for three hours (for agonists) or two hours (for antagonists) in Millipore Multiscreen® 96-well GF/C filter plates and assays were terminated by rapid filtration on a cell harvester (Brandel, Gaithersburg, Md.) followed by 4×150 μl washes over 30 seconds with ice cold 10 mM Tris-HCl, pH 7.4, 10 mM MgCl2. Nonspecific binding was measured in the presence of 50 μM NECA. Competition binding assays were performed as described (Robeva et al., 1996) using 0.5-1 nM ^125I-APE, ^125I-ZM241385, or ^125I-ABA. […]
# human A1 AR = target: T2, human A1 AR (Homo sapiens, UniProt P30542); experiment: Radioligand competition binding, human A1 AR; settings: binding affinity; 125I-ABA; membranes of CHO K1 cells stably expressing human A1 AR
# T2 construct: expressed in transfected cells; membranes
# T2 sequence (P30542 1-326): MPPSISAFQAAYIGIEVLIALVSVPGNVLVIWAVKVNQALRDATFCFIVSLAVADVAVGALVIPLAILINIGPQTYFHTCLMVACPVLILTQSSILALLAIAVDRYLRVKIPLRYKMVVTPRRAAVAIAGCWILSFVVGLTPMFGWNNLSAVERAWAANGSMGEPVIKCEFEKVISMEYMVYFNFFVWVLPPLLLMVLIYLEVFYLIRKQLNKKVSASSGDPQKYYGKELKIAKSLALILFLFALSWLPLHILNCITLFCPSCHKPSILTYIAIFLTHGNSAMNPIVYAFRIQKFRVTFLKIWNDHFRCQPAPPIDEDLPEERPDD
# Protocol: as §1, §2
# human neutrophils = experiment: Human neutrophil oxidative activity, luminol-enhanced chemiluminescence; format: cell-based; settings: fMLP-stimulated peak chemiluminescence
# From the text: Chemiluminescence Methods: Luminol enhanced chemiluminescence, a measure of neutrophil oxidative activity, is dependent upon both superoxide production and mobilization of the granule enzyme myeloperoxidase. The light is emitted from unstable high-energy oxygen species such as hypochlorous acid and singlet oxygen generated by activated neutrophils.
# Purified human neutrophils (2×10^6/ml) suspended in Hanks balanced salt solution containing 0.1% human serum albumin (HA), adenosine deaminase (1 U/mL) and rolipram (100 nM) were incubated (37° C.) in a water bath for 15 min with or without rhTNF(10 U/ml). Following incubation 100 µL aliquots of the PMN were transferred to wells (White walled clear bottom 96 well tissue culture plates Costar #3670; 2 wells/condition) containing […] and luminol (final concentration 100 µM) with or without adenosine agonist (final agonist concentrations 0.01-1000 nM). The plate was incubated 5 min (37° C.) and then fMLP (501 in HA; final concentration […]) was added to all wells.
# Peak chemiluminescence was determined with a Victor 1420 Multilabel Counter in the chemiluminescence mode using the Wallace Workstation software. Data are presented as peak chemiluminescence as percent of activity in the absence of an adenosine agonist. The EC50 was determined using PRISM software. All compounds were tested with PMNs from three separate donors.
# f-met-leu-phe (fMLP), luminol, superoxide dismutase, cytochrome C, fibrinogen, adenosine deaminase, and trypan blue were obtained from Sigma Chemical. Ficoll-hypaque was purchased from ICN (Aurora, Ohio), and Cardinal Scientific (Santa Fe, N. Mex.) and Accurate Chemicals and Scientific (Westerbury, N.Y.). Endotoxin (lipopolysaccharide; E. coli K235) was from List Biologicals (Campbell, Calif.). Hanks balanced salt solution (HBSS), and limulus amebocyte lysate assay kit were from BioWittaker (Walkersville, Md.). Human serum albumin (HSA) was from Cutter Biological (Elkhart, Ind.). Recombinant human tumor necrosis factor-alpha was supplied by Dianippon Pharmaceutical Co. Ltd. (Osaka, Japan). ZM241385 (4-(2-[7-amino-2-(2-furyl) [1,2,4]triazolo[2,3-a][1,3,5]triazin-5-yl amino]ethyl)phenol) was a gift from Simon Poucher, Zeneca Pharmaceuticals, Cheshire, UK. Stock solutions (1 mM and 10 mM in DMSO) were made and stored at −20° C.
# Purified neutrophils (−98% neutrophils and >95% viable by trypan blue exclusion) containing <1 platelet per 5 neutrophils and <50 pg/ml endotoxin (limulus amebocyte lysate assay) were obtained from normal heparinized (10 U/ml) venous blood by a one step Ficoll-hypaque separation procedure (A. Ferrante et al., J. Immunol. Meth., 36, 109 (1980)).
# Luminol-enhanced chemiluminescence, a measure of neutrophil oxidative activity, is dependent upon both superoxide production and mobilization of the lysosomal granule enzyme myeloperoxidase. The light is emitted from unstable high-energy oxygen species generated by activated neutrophils. Purified neutrophils (5-10×10^5/ml) were incubated in Hanks balanced salt solution containing 0.1% human serum albumin (1 ml) with the tested A2A agonist with or without rolipram and with or without tumor necrosis factor-alpha (1 U/ml) for 30 minutes at 37° C. in a shaking water bath. Then luminol (1×10^−4 M) enhanced f-met-leu-phe (1 mcM) stimulated chemiluminescence was read with a Chronologo Photometer (Crono-log Corp., Havertown, Pa.) at 37° C. for 2-4 minutes. Chemiluminescence is reported as relative peak light emitted (=height of the curve) compared to samples with tumor necrosis factor-alpha and without agonist or rolipram.
# [1] = target: T3, recombinant human A2A receptors (Homo sapiens, UniProt P29274); experiment: Radioligand competition binding, recombinant human A2A receptors; settings: binding affinity; 125I-APE or 125I-ZM241385; Sf9 cell membranes
# T3 construct: expressed in transfected cells; host or cells: Sf9 insect cells, viral infection; membranes
# T3 sequence (P29274 whole entry): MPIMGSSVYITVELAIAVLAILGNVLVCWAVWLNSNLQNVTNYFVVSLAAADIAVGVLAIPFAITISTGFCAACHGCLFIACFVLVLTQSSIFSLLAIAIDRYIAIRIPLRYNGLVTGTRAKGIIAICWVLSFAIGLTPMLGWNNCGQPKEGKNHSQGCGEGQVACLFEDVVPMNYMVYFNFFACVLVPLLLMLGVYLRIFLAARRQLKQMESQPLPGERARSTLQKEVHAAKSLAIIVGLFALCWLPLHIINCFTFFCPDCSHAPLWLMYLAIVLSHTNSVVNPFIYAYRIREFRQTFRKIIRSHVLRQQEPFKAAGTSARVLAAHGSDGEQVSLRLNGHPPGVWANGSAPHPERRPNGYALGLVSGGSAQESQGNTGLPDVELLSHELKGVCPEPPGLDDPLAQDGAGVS
# Protocol: as §1, §2
# [2] = human neutrophil experiment with Rolipram, read-out: Functional + Roli
# [3] = human neutrophil experiment without Rolipram, read-out: Functional
Ki (A3 AR),Ki (human A1 AR),EC50 (human neutrophils; [2]),EC50 (human neutrophils; [3]),Ki [1],SMILES
34 nM,32 nM,0.2 nM,2 nM,0.58 nM,"COC(=O)C1CCC(CC#Cc2nc(N)c3ncn([C@@H]4O[C@H](C(=O)NC5CC5)C(O)C4O)c3n2)CC1 (stereo in doubt) [Example 1, 4-{3-[6-Amino-9-(5-cyclopropylcarbamoyl-3,4-dihydroxy-tetrahydro-furan-2-yl)-9H-purin-2-yl]-prop-2-ynyl}-cyclohexanecarboxylic acid methyl ester]"
45 nM,33 nM,0.2 nM,2 nM,0.6 nM,"Nc1nc(I)nc2c1ncn2[C@@H]1O[C@H](C(=O)NC2CC2)C(O)C1O (stereo in doubt) [Example 4, 5-(6-Amino-2-iodo-purin-9-yl)-3,4-dihydroxy-tetrahydro-furan-2-carboxylic acid cyclopropylamide]"
3 nM,1.5 nM,0.04 nM,0.3 nM,0.5 nM,"C[C@@H]1CCC[C@@](O)(C#Cc2nc(N)c3ncn([C@@H]4O[C@H](C(=O)NC5CC5)C(O)C4O)c3n2)C1 (stereo in doubt) [Example 3, 5-[6-Amino-2-(1-hydroxy-3-methyl-cyclohexylethynyl)-purin-9-yl]-3,4-dihydroxy-tetrahydro-furan-2-carboxylic acid cyclopropylamide]"
247 nM,57 nM,0.2 nM,2 nM,0.7 nM,"COC(=O)N1CCC(CC#Cc2nc(N)c3ncn([C@@H]4O[C@H](C(=O)NC5CC5)C(O)C4O)c3n2)CC1 (stereo in doubt) [Example 2, 4-{3-[6-Amino-9-(5-cyclopropylcarbamoyl-3,4-dihydroxy-tetrahydro-furan-2-yl)-9H-purin-2-yl]-prop-2-ynyl}-piperidine-1-carboxylic acid methyl ester]"
